From patent publication US20240299698A1, “PREVENTION AND TREATMENT OF POST-OPERATIVE COGNITIVE DYSFUNCTION (POCD)” (Noetix Pharma LLC, priority 2022, published 2024)

Columns and labels:
[1] = test system: mouse model of (POCD); assay: Fear conditioning cued testing in laparotomy mouse model of POCD; type: in vivo, Male C57BI/6 mice; details: PSD3
Source text: To induce POCD, mice were anesthetized with isoflurane and maintained at a surgical plane of anesthesia (2-2.5%). The abdomen was shaved and cleaned/disinfected with both betadine and ethanol (70%). A 1.5 cm vertical incision was made along the midline of the abdomen, perforating the skin and the peritoneal cavity. A sterile blunt probe was inserted into the cavity, and the abdominal viscera and musculature were manipulated for five minutes. Abdominal muscles and skin were sutured, polysporin and topical lidocaine were applied to the incision site, and buprenorphine (0.1 mg/kg s.c.) was administered. Animals were placed into a clean, pre-warmed home cage for recovery and housed singly thereafter.
Fear conditioning is a commonly used test of associative learning where a […] stimulus is paired with an aversive unconditioned stimulus, resulting in a freezing response that can be subsequently quantified. Training occurred on the day prior to surgery, context testing on PSD1 (i.e., 2 days after training) and PSD3 (i.e., 4 days after training), and cued testing on PSD3 at a time point three hours after the final context test. For training and context testing, mice were placed in an operant chamber (Med Associates). For cued testing, mice were placed into a novel arena with novel external environment and scent.
Fear conditioning training was performed to generate an association between a neutral “conditional” stimulus (80 dB tone) with an aversive “unconditional” stimulus (0.4 mA shock). Before training, the system was tested to confirm proper operation of the shock and tone. During training, the testing environment was kept quiet and well controlled. Temperature and humidity levels were kept constant and the experimenter was not visible from the operant chamber, which was cleaned between animals. The training protocol was as follows: 1. Each mouse was habituated to the testing room for 20 minutes. 2. Video recording was initiated and the animal's ID card was recorded. 3. Each mouse was placed into the operant chamber and the training protocol was implemented as follows: a. 120 seconds; no stimuli (habituation to the chamber); b. 20 seconds, tone presentation (80 dB); c. 20 seconds, no stimuli (trace delay period); d. 2 seconds, foot shock (0.4 mA); e. 90 seconds, no stimuli (intertrial interval); f. repeat steps a-d followed by a final 30 second no stimuli period. 4. The mouse was returned to its home cage.
The purpose of cued testing is to evaluate cued memory for an aversive stimulus. […]
Cued testing was performed as follows: 1. […] Video recording was initiated and the animal's ID card was recorded. […]

[2] = test system: hippocampal microglial cells; assay: Evaluation of hippocampal microglial cell morphology (Iba1 immunohistochemistry); type: in vivo, Male C57BI/6 mice; details: for Iba1-positive microglial cell morphology (activated characteristics), rank 0-2: 8 days post-surgery, n=8
Procedure: A subset of mice was evaluated to compare acute and chronic treatment of pirfenidone paradigms against Normal Control and Disease Control tissues (n=8/treatment group). A neuroinflammation marker, ionizing calcium binding adaptor molecule 1 (Iba1), was investigated in the hippocampus as an indication of the level of inflammatory response. The hippocampus is particularly vulnerable to both acute and chronic stressors, including those triggered by physical trauma.
The right hemispheres of a subsection of study mice were evaluated via fluorescent IHC analysis to investigate the impact of laparotomy and drug intervention on hippocampal inflammatory mechanisms. Iba1 was assessed as a marker of neuroinflammation because it is indicative of inflammatory response in the central nervous system.
Cryoprotected hemispheres were blocked in OCT compound (Thermofisher) and stored at −80° C. until sectioning. […]
• To obtain micrographs for quantification • Fluorescent microscope (Zeiss Axio Observer Z1) Apotome.2 imaging system Zeiss imaging software (Zen 2 Blue edition) • Settings were manually selected to allow visualization of signal on all sections (signal must be visible on low intensity sections but must not be overexposed on high intensity sections). […]
Ionized calcium-binding adapter molecule 1 (Iba1) is a microglia-specific calcium-binding protein that participates in phagocytosis in activated microglia. […] Iba1 is thus a sensitive marker of inflammation and is quantified by measuring the intensity of the Iba1 positive signal. […]
Hippocampal tissue from the right hemispheres was evaluated for functional cell morphology using non-parametric rank ordering of tissue as follows: • 0=normal morphology (ramified, mostly ramified) • 1=moderate morphology (ramified-activated) • 2=activated morphology (activated, activated ameboid, ameboid)

## Cc1ccc(=O)n(-c2ccccc2)c1 [pirfenidone, 5-methyl-1-phenyl-2-(1H)-pyridone]
[1]; Acute (400 mg/kg p.o. single dose) compared to Chronic pirfenidone and Disease controls, longer freeze times
  freezing during cued testing (overall measures): increased mean performance
[1]; Acute compared to Disease Control mice, longer freeze times
  freezing time, cued testing, post-tone period: increased mean performance
[1]; Chronic (400 mg/kg initial; 200 mg/kg p.o. 1x/day)
  freezing during cued testing (overall measures): performed more similarly to Disease Control
[1]; Chronic vs Normal Controls, p=0.088
  freezing time, cued testing, post-tone period: trend toward decreased freezing times
[2]; Acute
  Iba1-positive microglial cell morphology (activated characteristics), rank 0-2: reduced this microglial activation
[2]; Chronic
  Iba1-positive microglial cell morphology (activated characteristics), rank 0-2: reduced this microglial activation
[2]; summary statement, regimen not distinguished
  microglial activation in the hippocampus (summary): reduced microglial activation in the hippocampus
